# Values joined by “and” are separate entries in the source; they are usually repeats but may differ in a detail not shown here. Equal entries are not always repeated. Toxic doses and inconclusive results are not listed.
# Test system: P388 leukemia ip, CD2F1 mice, survival T/C
# Test: NCI In Vivo Anticancer Drug Screen. Data for tumor model P388 Leukemia (intraperitoneal) in CD2F1 (CDF1) mice
# Settings: endpoint: median survival time, higher = longer survival
# Outline: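 Mice carrying the transplanted tumor received test compound or vehicle. Survival was recorded in each group, and the value is the treated-group measurement divided by that of the vehicle-treated control group.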
# [1] = dose: 60.0 mg/kg/injection, schedule: Q01DX005 (ip), vehicle: saline with Tween-80
# [2] = dose: 120.0 mg/kg/injection, schedule: Q01DX005 (ip), vehicle: saline with Tween-80
# [3] = dose: 240.0 mg/kg/injection, schedule: Q01DX005 (ip), vehicle: saline with Tween-80
# [4] = dose: 25.0 mg/kg/injection, schedule: Q04DX003 (ip), vehicle: Klucel (hydroxypropylcellulose) (HPC)
# [5] = dose: 50.0 mg/kg/injection, schedule: Q01DX009 (ip), vehicle: saline with Tween-80
# [6] = dose: 100.0 mg/kg/injection, schedule: Q01DX009 (ip), vehicle: saline with Tween-80
# [7] = dose: 50.0 mg/kg/injection, schedule: Q01DX005 (ip), vehicle: Klucel (hydroxypropylcellulose) (HPC)
# [8] = dose: 100.0 mg/kg/injection, schedule: Q01DX005 (ip), vehicle: Klucel (hydroxypropylcellulose) (HPC)
# [9] = dose: 200.0 mg/kg/injection, schedule: Q01DX005 (ip), vehicle: Klucel (hydroxypropylcellulose) (HPC)
smiles,measurement,setting,value
O=C(O)CCO/N=C1/Oc2ccc(Cl)cc2C1=O,T/C,[1],103 % of control
same,T/C,[2],102 % of control
same,T/C,[3],101 % of control
O=S(=O)(O)O.[W],T/C,"dose: 0.38 mg/kg/injection, schedule: Q01DX009 (ip), vehicle: saline with Tween-80",91 % of control
same,T/C,"dose: 0.38 mg/kg/injection, schedule: Q01DX009 (ip), vehicle: saline",99 % of control
same,T/C,"dose: 0.75 mg/kg/injection, schedule: Q01DX009 (ip), vehicle: saline",89 % of control and 96 % of control
same,T/C,"dose: 1.5 mg/kg/injection, schedule: Q01DX009 (ip), vehicle: saline with Tween-80",100 % of control
same,T/C,"dose: 1.5 mg/kg/injection, schedule: Q01DX009 (ip), vehicle: saline",98 % of control and 86 % of control
same,T/C,"dose: 3.0 mg/kg/injection, schedule: Q01DX009 (ip), vehicle: saline with Tween-80",87 % of control
same,T/C,"dose: 3.0 mg/kg/injection, schedule: Q01DX009 (ip), vehicle: saline",89 % of control and 94 % of control
CCCCCCCC/C=C\CCCCCCCC(=O)OC,T/C,"dose: 177.0 mg/kg/injection, schedule: Q01DX009 (ip), vehicle: saline with Tween-80",109 % of control
same,T/C,"dose: 266.0 mg/kg/injection, schedule: Q01DX009 (ip), vehicle: saline with Tween-80",116 % of control
same,T/C,"dose: 400.0 mg/kg/injection, schedule: Q01DX009 (ip), vehicle: saline with Tween-80",106 % of control
same,T/C,"dose: 600.0 mg/kg/injection, schedule: Q01DX009 (ip), vehicle: saline with Tween-80",107 % of control
CCOP(=O)(O)C1CCCC(C)[N-]1.CCOP(=O)(O)C1CCCC(C)[N-]1.[Fe+2] (stereo not drawn),T/C,[4],101 % of control
same,T/C,"dose: 50.0 mg/kg/injection, schedule: Q04DX003 (ip), vehicle: Klucel (hydroxypropylcellulose) (HPC)",95 % of control
same,T/C,"dose: 100.0 mg/kg/injection, schedule: Q04DX003 (ip), vehicle: Klucel (hydroxypropylcellulose) (HPC)",100 % of control and 89 % of control
COc1cccc2c1C(=N)c1c(O)c3c(c(O)c1C2=O)CC(O)(C(=O)CO)CC3OC1CC(N2CCOCC2C#N)C(O)C(C)O1 (stereo not drawn),T/C,"dose: 0.25 mg/kg/injection, schedule: Q04DX003 (ip), vehicle: saline",117 % of control
same,T/C,"dose: 0.5 mg/kg/injection, schedule: Q04DX003 (ip), vehicle: saline",157 % of control
same,T/C,"dose: 1.0 mg/kg/injection, schedule: Q04DX003 (ip), vehicle: saline",111 % of control and 97 % of control
CCOC(=O)C/C(C)=C1/N=C(c2ccccc2)OC1=O,T/C,[1],91 % of control
same,T/C,[2],91 % of control
same,T/C,[3],92 % of control
CNNC(=O)OC,T/C,"dose: 25.0 mg/kg/injection, schedule: Q01DX002 (ip), vehicle: saline",101 % of control
same,T/C,"dose: 50.0 mg/kg/injection, schedule: Q01DX002 (ip), vehicle: saline",102 % of control
same,T/C,"dose: 100.0 mg/kg/injection, schedule: Q01DX002 (ip), vehicle: saline",120 % of control
C[C@]12CCCC[C@@H]1CC[C@@H]1[C@@H]2CC[C@]2(C)[C@@H](N(CCO)CCCO)CC[C@@H]12,T/C,"dose: 12.5 mg/kg/injection, schedule: Q01DX009 (ip), vehicle: Klucel (hydroxypropylcellulose) (HPC)",93 % of control
same,T/C,"dose: 25.0 mg/kg/injection, schedule: Q01DX009 (ip), vehicle: Klucel (hydroxypropylcellulose) (HPC)",99 % of control
same,T/C,"dose: 50.0 mg/kg/injection, schedule: Q01DX009 (ip), vehicle: Klucel (hydroxypropylcellulose) (HPC)",88 % of control
COc1ccc(CCN2CCC(Nc3nc4ccccc4n3Cc3ccc(F)cc3)CC2)cc1,T/C,"dose: 50.0 mg/kg/injection, schedule: Q01DX005 (ip), vehicle: saline with Tween-80",92 % of control
same,T/C,"dose: 100.0 mg/kg/injection, schedule: Q01DX005 (ip), vehicle: saline with Tween-80",95 % of control
CC1C[As+](c2ccccc2)(c2ccccc2)CC(C)N1C.[O-][Cl+3]([O-])([O-])[O-] (stereo not drawn),T/C,"dose: 25.0 mg/kg/injection, schedule: Q01DX009 (ip), vehicle: saline with Tween-80",100 % of control
same,T/C,[5],104 % of control
same,T/C,[6],106 % of control
CCCCCCCCCCC1SCC(=O)N1c1nncs1 (stereo not drawn),T/C,[1],102 % of control
same,T/C,[2],97 % of control
same,T/C,[3],94 % of control
O=C1N(c2ccccc2)C(=O)C2(N(c3ccccc3)CCN2c2ccccc2)N1c1ccccc1,T/C,"dose: 100.0 mg/kg/injection, schedule: Q04DX002 (ip), vehicle: saline with Tween-80",88 % of control
same,T/C,"dose: 200.0 mg/kg/injection, schedule: Q04DX002 (ip), vehicle: saline with Tween-80",89 % of control
same,T/C,"dose: 400.0 mg/kg/injection, schedule: Q04DX002 (ip), vehicle: saline with Tween-80",88 % of control
CN(C)c1noc2c1c(=O)n(C)c(=O)n2C,T/C,"dose: 60.0 mg/kg/injection, schedule: Q01DX005 (ip), vehicle: saline",105 % of control
same,T/C,"dose: 120.0 mg/kg/injection, schedule: Q01DX005 (ip), vehicle: saline",100 % of control
same,T/C,"dose: 240.0 mg/kg/injection, schedule: Q01DX005 (ip), vehicle: saline",99 % of control
CCOC(=O)COc1ccc2c(C)cc(=O)oc2c1[N+](=O)[O-],T/C,[1],102 % of control
same,T/C,[2],99 % of control
same,T/C,[3],98 % of control
C=C1C(=O)OCC1C(=O)O (stereo not drawn),T/C,"dose: 8.0 mg/kg/injection, schedule: Q01DX009 (ip), vehicle: saline",121 % of control
same,T/C,"dose: 16.0 mg/kg/injection, schedule: Q01DX009 (ip), vehicle: saline",114 % of control
same,T/C,"dose: 64.0 mg/kg/injection, schedule: Q01DX009 (ip), vehicle: saline",103 % of control
CCOC(=O)c1cnc2c(C(F)(F)F)cccc2c1N=[N+]=[N-],T/C,[1],99 % of control
same,T/C,[2],96 % of control
same,T/C,[3],95 % of control
CC1(CCC(=O)c2ccc3c(c2)OCO3)OCCO1,T/C,[1],116 % of control
same,T/C,[2],105 % of control
same,T/C,[3],100 % of control
C[C@]12CC[C@H]3[C@@H](C[C@H]4OC[C@@]35CC[C@H](O)C[C@]45Br)[C@@H]1CC[C@@H]2O,T/C,[7],97 % of control
same,T/C,[8],97 % of control
same,T/C,[9],96 % of control
CC(C)C(=NC1CCCCC1)NC(C)(C)C,T/C,[5],93 % of control
same,T/C,[6],99 % of control
COc1cc(C=C2C(=O)C=CC2=O)ccc1OCc1ccccc1,T/C,"dose: 2.5 mg/kg/injection, schedule: Q04DX002 (ip), vehicle: saline with Tween-80",102 % of control
same,T/C,"dose: 5.0 mg/kg/injection, schedule: Q04DX002 (ip), vehicle: saline with Tween-80",113 % of control
same,T/C,"dose: 10.0 mg/kg/injection, schedule: Q04DX002 (ip), vehicle: saline with Tween-80",107 % of control
same,T/C,"dose: 25.0 mg/kg/injection, schedule: Q04DX002 (ip), vehicle: saline with Tween-80",111 % of control
CC(C)OP(=O)(OC(C)C)c1ccncc1,T/C,"dose: 100.0 mg/kg/injection, schedule: Q01DX001 (ip), vehicle: saline",99 % of control
same,T/C,"dose: 200.0 mg/kg/injection, schedule: Q01DX001 (ip), vehicle: saline",96 % of control
same,T/C,"dose: 400.0 mg/kg/injection, schedule: Q01DX001 (ip), vehicle: saline",101 % of control
C=CC(C)(C)c1cc(O)c(OC)cc1O,T/C,[7],95 % of control
same,T/C,[8],102 % of control
same,T/C,[9],100 % of control
COC(C)(C)[CH]([Hg][Cl])n1ccccc1=O (stereo not drawn),T/C,"dose: 6.25 mg/kg/injection, schedule: Q04DX003 (ip), vehicle: Klucel (hydroxypropylcellulose) (HPC)",100 % of control
same,T/C,"dose: 12.5 mg/kg/injection, schedule: Q04DX003 (ip), vehicle: Klucel (hydroxypropylcellulose) (HPC)",93 % of control
same,T/C,[4],99 % of control and 100 % of control
C=CC12CC(=O)N3CCc4ccccc4C3(C1)C2,T/C,"dose: 100.0 mg/kg/injection, schedule: Q04DX002 (ip), vehicle: Klucel (hydroxypropylcellulose) (HPC)",110 % of control
same,T/C,"dose: 200.0 mg/kg/injection, schedule: Q04DX002 (ip), vehicle: Klucel (hydroxypropylcellulose) (HPC)",100 % of control
same,T/C,"dose: 400.0 mg/kg/injection, schedule: Q04DX002 (ip), vehicle: Klucel (hydroxypropylcellulose) (HPC)",97 % of control
Nc1ccn([C@@H](C=O)O[C@@H](C=O)CO)c(=O)n1,T/C,"dose: 44.0 mg/kg/injection, schedule: Q04DX003 (ip), vehicle: saline",112 % of control
same,T/C,"dose: 66.0 mg/kg/injection, schedule: Q04DX003 (ip), vehicle: saline",120 % of control
same,T/C,"dose: 100.0 mg/kg/injection, schedule: Q01DX009 (ip), vehicle: saline",150 % of control
same,T/C,"dose: 200.0 mg/kg/injection, schedule: Q01DX009 (ip), vehicle: saline",180 % of control
Cc1cc(C)nc(NS(=O)(=O)c2ccc(Nc3c4ccccc4nc4c([N+](=O)[O-])cccc34)cc2)n1,T/C,"dose: 3.75 mg/kg/injection, schedule: Q01DX005 (ip), vehicle: saline with Tween-80",100 % of control
same,T/C,"dose: 7.5 mg/kg/injection, schedule: Q01DX005 (ip), vehicle: saline with Tween-80",100 % of control
same,T/C,"dose: 15.0 mg/kg/injection, schedule: Q01DX005 (ip), vehicle: saline with Tween-80",97 % of control
